Measured values taken from patent US20190062709A1, “METHODS AND COMPOSITIONS FOR MAINTENANCE OF HEMATOPOIETIC STEM CELLS WITH PRESERVATION OF SELF-RENEWAL CAPACITY” (The Trustees of Columbia University in the City of New York, priority 2017, published 2019).
Like-named read-outs stand apart in the source and are kept apart here.

Columns and labels:
HSCs [1] = experiment: Calcium concentration of HSCs treated with metabolic inhibitors; format: cell-based, mouse
[2] = 37° C., assumed based on previous studies; read-out: Indo-1 dissociation constant (Kd); cited from earlier work
HSCs [3] = experiment: Competitive transplantation of cultured HSCs into irradiated recipient mice (donor chimerism); format: in vivo, mouse; conditions: 10% of culture transplanted
Method: Long term LT-HSCs cultures were carried out using Ca^2+-free DMEM (U.S. Biologicals) reconstituted with 4.5 g/L glucose and 1.1 g/L sodium bicarbonate at pH 7.4. Complete media was prepared with Ca^2+-free DMEM supplemented with 1× StemPro34 SFM (Invitrogen), 10 mM HEPES, 200 ng/mL of recombinant m-SCF and 30 ng/mL m-TPO (Peptrotech, Rocky Hill, N.J.). Media of various calcium concentrations was prepared as serial dilutions from stock complete media at 2 mM. Cultures were initiated with 3000-4000 purified HSCs (LSK+CD48−F1t3−CD150+) and cultured in round bottom 96 well plates with 150 uL of media in 5% O2 at 37° C. Half of the media volume was changed every 3 days and split 1:2 every 7 days. Cultures were counted at the time of phenotypic flow cytometric percentage analysis to determine phenotypic HSC counts at the end of culture. Based on calculations, HSC yields were expressed as phenotypic HSC at the end of culture divided by phenotypic HSC count at the start of culture.
All transplant experiments were initiated with LT-HSC cultures consisting of CD45.1 donor HSCs. […]
To test HSC function, irradiated recipient mice were competitively transplanted with 10% of the cultures, either at initiation or after 2 weeks of culture, and analyzed 15 weeks after transplantation. […] Donor contribution correlated with calculated phenotypic HSC cell dose transplanted (FIG. 2D). […]

[4] = test system: human progenitor/stem cells; conditions: literature report; cited from earlier work
murine AHR = target: T1, murine AHR (Mus musculus, UniProt P30561); conditions: literature report; cited from earlier work
T1 sequence (P30561 10-848): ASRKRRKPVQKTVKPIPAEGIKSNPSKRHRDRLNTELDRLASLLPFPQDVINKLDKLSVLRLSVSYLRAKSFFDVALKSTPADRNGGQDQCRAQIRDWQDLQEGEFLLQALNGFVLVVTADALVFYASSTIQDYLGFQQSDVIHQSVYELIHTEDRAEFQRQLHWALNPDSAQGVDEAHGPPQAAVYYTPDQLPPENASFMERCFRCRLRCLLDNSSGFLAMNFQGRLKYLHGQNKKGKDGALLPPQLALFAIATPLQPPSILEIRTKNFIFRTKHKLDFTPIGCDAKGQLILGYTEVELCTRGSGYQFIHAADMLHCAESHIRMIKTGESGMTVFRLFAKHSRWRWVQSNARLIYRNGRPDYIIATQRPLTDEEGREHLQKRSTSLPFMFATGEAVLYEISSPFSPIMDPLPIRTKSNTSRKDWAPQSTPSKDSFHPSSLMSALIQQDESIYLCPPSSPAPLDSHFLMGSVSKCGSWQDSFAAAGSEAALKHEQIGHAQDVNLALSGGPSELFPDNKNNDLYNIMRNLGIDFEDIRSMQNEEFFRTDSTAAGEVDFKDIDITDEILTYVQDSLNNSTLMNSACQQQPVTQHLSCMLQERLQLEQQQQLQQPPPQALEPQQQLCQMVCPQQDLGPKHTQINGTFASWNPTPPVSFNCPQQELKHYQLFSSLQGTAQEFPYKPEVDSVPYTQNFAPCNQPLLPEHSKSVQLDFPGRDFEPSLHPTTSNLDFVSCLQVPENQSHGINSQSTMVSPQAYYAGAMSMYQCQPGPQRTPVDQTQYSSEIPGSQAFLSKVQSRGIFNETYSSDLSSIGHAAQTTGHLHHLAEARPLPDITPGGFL

murine HSCs = conditions: literature report; cited from earlier work
[5] = purified HSCs treated 15 min, compared to DMSO control

Structure (SMILES): N#CC(C#N)=NNc1ccc(OC(F)(F)F)cc1 [FCCP]
- Cai^2+ of HSCs at higher doses (HSCs [1]; higher doses of the mitochondrial inhibitors, 15 min): further reduction
- Cai^2+ of HSCs (HSCs [1]; [5]): not inhibition of mitochondrial respiration increased

Structure (SMILES): Cc1ccc(N(CC(=O)O)CC(=O)O)c(OCCOc2cc(-c3cc4ccc(C(=O)O)cc4[nH]3)ccc2N(CC(=O)O)CC(=O)O)c1 [Indo-1]
- Kd [2]: 237 nM

Structure (SMILES): O=C(O)/C(S)=C/c1ccc(I)cc1 [PD150606, (Z)-3-(4-Iodophenyl)-2-mercapto-2-propenoic acid]
- competitive repopulation capacity (HSCs [3]; PD150606 25 μM added to high calcium (2.0 mM) 2-week HSC cultures): increased competitive repopulation capacity
- competitive repopulation capacity (HSCs [3]; PD150606 25 μM added to low calcium (0.02 mM) 2-week HSC cultures): no effect

Structure (SMILES): CC(C)n1cnc2c(NCCc3ccc(O)cc3)nc(-c3csc4ccccc34)nc21 [SR1, stemregenin 1]
- expansion of human progenitor/stem cells capable of repopulating irradiated immunodeficient mice [4]: led to expansion
- inhibition of murine AHR (murine AHR): does not inhibit
- expansion of murine HSCs (murine HSCs): does not lead to expansion

Structure (SMILES): O=C(O)CI [iodoacetic acid]
- Cai^2+ of HSCs (HSCs [1]): increased

Structure (SMILES): CC[C@H]1/C=C/C=C/C[C@@H](C)[C@H](O)[C@@](C)(O)C(=O)[C@@H](C)[C@H](O)[C@@H](C)C(=O)[C@@H](C)[C@H](O)[C@@H](C)/C=C/C(=O)O[C@@H]2[C@H](C)[C@H](CC1)O[C@]1(CC[C@H](C)[C@H](C[C@@H](C)O)O1)[C@H]2C [oligomycin]
- Cai^2+ of HSCs (HSCs [1]; [5]): not inhibition of mitochondrial respiration increased
